Results: patent US20220112149A1, “DRUG DESIGN METHOD ASSOCIATED WITH NATURAL PRODUCTS, PENTACYCLIC TRITERPENOID COMPOUND, PREPARATION METHOD AND APPLICATIONS THEREOF” (Huazhong Agricultural University, priority 2020, published 2022)
Entries after “also recorded” stand apart in the source; their conditions may differ.

Assays:
[1] = system: high-fat-induced obese mice; test: GA-02 in high-fat-induced obese mouse model, intraperitoneal; format: in vivo, C57BL/6 mice
Experimental: Animals are fed with 60% calorie high-fat diets (purchased from Bio-medicine) for 14 consecutive weeks. […] When the blood glucose is greater than 11 mmol/L and the body weight is greater than 42 g, the administration is started. […] The injection volume is 25 μL per day. In addition, a vehicle (25 μL DMSO) and positive drug (Celastrol) control are established. […] Mice in the blank group and GA-02 treatment group underwent pathological anatomy, to observe the changes in organs before and after administration. Samples are taken to prepare pathological sections.
The models are constructed by feeding high-fat diets to C57BL/6 male mice for 14 weeks. Mice with body weight greater than 42 g and blood glucose higher than 11 mmol/L are obese model mice. Mice are grouped by blood glucose and body weight. Model mice in each group are given three doses of GA-02 (high-, medium-and low-doses, 4, 12, 20 mg/kg, 25 μL/day) by intraperitoneal injection for 14 consecutive days. Mice in the blank control group are given DMSO (25 μL/day) by intraperitoneal injection, and the food intakes and body weights are recorded every day.

[2] = system: mildly obese mice of weighing about 30 g; test: GA-02 intragastric administration in mildly obese mice; format: in vivo; settings: 40 mg/kg intragastric, two weeks
Experimental: (§3) The lean mice of about 25 g, mildly obese mice of weighing about 30 g, and obese mice of about 45 g are given blank vehicle and high-dose GA-02 (40 mg/kg) by intragastric administration, respectively.

[3] = system: obese mice of about 45 g; test: GA-02 intragastric administration in obese mice; format: in vivo; settings: 40 mg/kg intragastric, two weeks
Experimental: as §3

[4] = system: mildly obese mice; test: GA-02 in mildly obese mouse model, intraperitoneal; format: in vivo, C57BL/6 mice
Experimental: The animal feeding and experiment method are as follows. […] The food intake and body weights of mice in each group are measured every day.

[5] = system: NF-κB signaling in HEK293 cells; test: NF-κB luciferase reporter gene system; format: cell-based
Experimental: (§1) FIGS. 10A-10C show the inhibition verification effect chart of GA-02 in Example 5, where FIG. 10A: GA-02 inhibited LPS-induced ICAM-1 expression activity. The inflammatory pathway of HMEC-1 cell was activated by 1 μg/mL LPS, to determine the effect of Celastrol and GA-02 on the expression of ICAM-1 induced by LPS. FIG. 10B: The effect of GA-02 on NF-κB signaling. The NF-κB luciferase reporter plasmid was used to transfect HEK293 cells, and the effects of Celastrol and GA-02 on the NF-κB activity induced by TNF-α were determined; FIG. 10C: qRT-PCR was used to detect mRNA relative expressions of IL-1β, TNF-α, IL-6 and MCP-1.
(§2) ICAM-1 is a downstream effector molecule regulated by NF-κB signaling pathway, and NF-κB plays an important role in regulating the expression of ICAM-1 gene. Celastrol can inhibit the activation of the LPS-induced IKK/NF-κB signaling pathway. In order to validate that GA-02 functions through the IKK/NF-κB signaling pathway, we constructed an NF-κB luciferase reporter gene system to validate the inhibitory activity of Celastrol and GA-02 on the luciferase reporter gene. […] In addition, both Celastrol and GA-02 could down-regulate the mRNA transcription levels of inflammatory factors IL-1β, TNF-α, IL-6 and MCP-1 activated by LPS.

[6] = system: mRNA of IL-1β, TNF-α, IL-6 and MCP-1; test: qRT-PCR of inflammatory factor mRNA; format: cell-based; settings: activated by LPS
Experimental: as §1, §2

[7] = system: Leptin-deficient ob/ob mice; test: GA-02 in ob/ob mice, intraperitoneal; format: in vivo; settings: 20 mg/kg i.p.
Experimental: Eight-week-old male ob/ob and db/db mice are adapted to the environment under normal conditions for one week. The animals are grouped according to the body weight and blood glucose, 2 cages in each group, 5 animals in each cage. Mice are acclimatized with the vehicle for 3 days in the experimental group (25 μL DMSO/day) and are injected with drugs by intraperitoneal injection (20 mg/kg; 25 μL per injection). Mice in the control group are injected with the same volume of vehicle. The administration starts from 18:00 every day for 14 consecutive days. The body weight and food intake of mice are recorded every day.

[8] = high-dose (20 mg/kg) i.p., second day
[9] = high-dose (20 mg/kg) i.p., third day
[10] = low-, medium- and high-dose (4, 12, 20 mg/kg) i.p.
[11] = low-, medium- and high-dose (4, 12, 20 mg/kg) i.p., 14 days

CC1(C(=O)O)CCC2(C)CCC3(C)C(=CC(=O)C4C5(C)C=C(O)C(=O)C(C)(C)C5CCC43C)C2C1 (stereo not drawn) [GA-02, 3,11-dicarbonyl-1,12-diene-2-hydroxy-oleanane-30 carboxylic acid]
accumulated fats in the visceral tissues ([1]; after administration for two weeks, dissection): completely dissipated
average daily food intake decreased compared to the vehicle control group ([1]; first week, high dose 20 mg/kg i.p.): 63.2%
average daily food intake ([1]; first week, high dose 20 mg/kg i.p., vehicle 2.31±0.18 g): 0.85 ± 0.23 g
average daily food intake decreased compared to the vehicle control group ([1]; first week, low dose 4 mg/kg i.p.): 20.8%
average daily food intake ([1]; first week, low dose 4 mg/kg i.p., vehicle 2.31±0.18 g): 1.83 ± 0.28 g
average daily food intake decreased compared to the vehicle control group ([1]; first week, medium dose 12 mg/kg i.p.): 27.3%
average daily food intake ([1]; first week, medium dose 12 mg/kg i.p., vehicle 2.31±0.18 g): 1.68 ± 0.35 g
body weight reduced by ([1]; high dose 20 mg/kg i.p., 14 days): 26.42±0.73%
body weight two weeks after administration ([1]; high dose 20 mg/kg i.p., 14 days, from 42.14±1.37 g): 30.07 ± 1.23 g
lipid droplets in the liver (oil red O and H&E staining) ([1]; high-dose (20 mg/kg) i.p.): completely disappeared
liver function indexes AST and ALT vs vehicle control group ([1]; high-dose (20 mg/kg) i.p.): significantly lower
average daily food intake ([1]; high-dose (20 mg/kg) i.p., first day of administration, day 0: 2.0±0.18 g): 0.60 ± 0.02 g
body weight ([1]; high-dose (20 mg/kg) i.p., first day, from 42.09±0.42 g): 40.98 ± 0.57 g
average daily food intake [1, 8]: 0.47 ± 0.16 g
body weight [1, 8]: 39.94 ± 0.62 g
average daily food intake [1, 9]: 0.39 ± 0.11 g
body weight [1, 9]: 39.23 ± 0.71 g
blood glucose tolerance (GTT) and insulin tolerance (ITT) ([1]; high-dose administration group): significantly improved
effect on suppressing appetite and reducing body weight (summary) ([1]; intraperitoneal injection, obese mice): strong effect
body weight reduced by ([1]; low dose 4 mg/kg i.p., 14 days): 9.88±2.37%
body weight two weeks after administration ([1]; low dose 4 mg/kg i.p., 14 days, from 42.50±1.71 g): 38.46 ± 0.95 g
fat contents vs obese model mice (NMR body fat quantitative analysis) [1, 10]: significantly lower
lean body masses (NMR body fat quantitative analysis) [1, 10]: no significant change
fasting blood glucose level [1, 11]: reduce to a normal level; also recorded: return to the normal levels
weights of liver and epididymal fat compared to the vehicle control group [1, 11]: decrease in a dose-dependent manner
body weight reduced by ([1]; medium dose 12 mg/kg i.p., 14 days): 13.15±2.73%
body weight two weeks after administration ([1]; medium dose 12 mg/kg i.p., 14 days, from 41.41.±1.17 g): 35.45 ± 1.15 g
average daily food intake decreased compared to the vehicle control group ([1]; second mention of 'first week', high dose 20 mg/kg i.p.): 68.8%
average daily food intake ([1]; second mention of 'first week', high dose 20 mg/kg i.p., vehicle 2.47±0.13 g): 0.70 ± 0.16 g
average daily food intake decreased compared to the vehicle control group ([1]; second mention of 'first week', low dose 4 mg/kg i.p.): 37.2%
average daily food intake ([1]; second mention of 'first week', low dose 4 mg/kg i.p., vehicle 2.47±0.13 g): 1.55 ± 0.12 g
average daily food intake decreased compared to the vehicle control group ([1]; second mention of 'first week', medium dose 12 mg/kg i.p.): 45.3%
average daily food intake ([1]; second mention of 'first week', medium dose 12 mg/kg i.p., vehicle 2.47±0.13 g): 1.35 ± 0.18 g
average daily food intake reduced by [2]: 30%
body weight reduced by [2]: 16%
average daily food intake reduced by [3]: 50%
body weight reduced by [3]: 21%
food intake and body weight vs vehicle control group ([4]; high-dose i.p., mild obesity group, body weight of about 28 g): significantly lower
effect on suppressing appetite and reducing body weight (summary) ([4]; intraperitoneal injection, mildly obese mice): significant effect
inhibition of NF-κB reporter fluorescence compared with Celastrol ([5]; 10 μM): equivalent to that of 1 μM Celastrol
inhibition of the fluorescence intensity, concentration dependence ([5]; different concentrations): concentration-dependent manner
mRNA transcription levels of inflammatory factors IL-1β, TNF-α, IL-6 and MCP-1 [6]: down-regulate
food intake compared with the blank vehicle group ([7]; 14 days): reduced, but it is not significant
overall decrease in body weight ([7]; 14 days): not significant
body weight increase ([7]; in the first five days, later dropped to the initial body weight): 10%
